Test results as given in paper PMC9785474, “Solubility Enhancement of Dihydroquercetin via “Green” Phase Modification” (International Journal of Molecular Sciences, 2022).
Values after ≈ are worked out from the molar mass of the structure shown.

How the values were obtained:
[1] = Solubility by European Pharmacopeia (EP) express method; assay type: physicochemical; conditions: for solubility: thermodynamic from solid; for solubility / Term by EP: water solubility, ambient conditions, European Pharmacopeia 10.0
Description: Solubility is one of the key parameters to describe the biopharmaceutical characteristics of active pharmaceutical ingredients. There are different ways of solubility determination. One of them is an express method widely used in pharmaceutical science, described in European Pharmacopeia (EP). More accurate data may be obtained by the sedimentation method.
The analysis was performed in accordance with the pharmacopoeial monograph of European Pharmacopeia 10.0 [52] at ambient conditions.

[2] = ABTS/PP antioxidant capacity assay; conditions: for Antioxidant Capacity, n-Value: ABTS•+ radicals scavenged by one molecule of antioxidant, 6 min, 730 nm; for Antioxidant Capacity, n-Value / Antioxidant Capacity, ΔA: mean ± SD; for Antioxidant Capacity, ΔA: absorbance decrease at 730 nm, 6 min incubation at 32 °C, corrected for self-bleaching; for Changes of ΔA and n-values from DHQR (paired Student's t-test): compared with DHQR
Description: To compare the antioxidant capacity of DHQ in different forms, we employed the ABTS/PP assay, as reported by Re et al., with some modifications. In brief, an antioxidant was added to the pre-generated stock solution of radical-cation ABTS^•+, and then, after 6 min incubation in the dark place at 32 °C, the decrease in the absorption at 730 nm was calculated. ABTS^•+ self-bleaching after 6 min was measured in the same conditions without the addition of antioxidants. The initial ABTS^•+ absorbance in the incubation mix before the addition of an antioxidant was adjusted to […]. The stock solution of the radical-cation ABTS^•+ was prepared by the incubation of the ABTS with PP at final concentrations of 7 mM and 2.5 mM, respectively, during 12–16 h in the dark. UV-Vis spectra were obtained on a Cary 100 (Varian, Palo Alto, CA, USA).
The absorbance decrease ∆A at 730 nm due to inhibition of radical-cation ABTS^•+ was calculated as follows (5):∆A = A0 − A1 − ∆Asb,(5) where A0 and A1 are the ABTS^•+ absorbances at 730 nm, pathlength 1 cm, before and 6 min after the antioxidant addition, respectively. The self-bleaching of radical-cation ABTS^•+ ∆Asb was calculated as the difference between the ABTS^•+ absorbance right after the addition of stock ABTS^•+ to PBS to give absorbance 1.0 ± 0.1 and 6 min later.
The amount of ABTS^•+ radicals scavenged by one molecule of antioxidant (n-value) was calculated according to the Equation (6):(6) N=CABTS·+/Cantioxidant=ΔA/ε · Cantioxidant, where CABTS^•+ is the concentration of the scavenged ABTS^•+, ε is the extinction at 730 nm 15,000 L·mol^−1·cm^−1, l is the optical pathlength 1 cm, and Cantioxidant is the concentration of the antioxidant.

[3] = Solubility by sedimentation method (centrifugation, UV spectrometry); assay type: physicochemical; conditions: for solubility: water, thermodynamic from solid
Description: Solubility is one of the key parameters to describe the biopharmaceutical characteristics of active pharmaceutical ingredients. There are different ways of solubility determination. One of them is an express method widely used in pharmaceutical science, described in European Pharmacopeia (EP). More accurate data may be obtained by the sedimentation method. […] To determine the concentration of DHQ solutions, UV spectrometry was applied. Three hundred mg of each DHQ sample were dissolved in 10.0 mL of […] and centrifuged for 5 min at 10,000 rpm by centrifuge MiniSpin® (Eppendorf AG, Hamburg, Germany). The analyzed solutions were prepared by dilution of the supernatant 50 μL up to 25 mL with distilled water. The UV spectra were recorded with a Cary-100 (Varian, Palo Alto, CA, USA). The accurate concentrations were calculated using a calibration curve.

[4] = 300 mg in 10.0 mL, centrifuged 5 min at 10,000 rpm, UV spectrometry of supernatant, mean ± SD

| SMILES | solubility [1] [µg/mL] | Term by EP [1] | Antioxidant Capacity, n-Value [2] | Antioxidant Capacity, ΔA [2] | solubility [3, 4] [µg/mL] | Enhancement of water solubility compared with DHQR, EP method ([1]; compared with DHQR) | Changes of ΔA and n-values from DHQR (paired Student's t-test) [2] | Increase of solubility compared with DHQR, sedimentation method [3] [times] | Solubility, By Sedimentation Method [3, 4] [µg/mL] |
| --- | --- | --- | --- | --- | --- | --- | --- | --- | --- |
| O=C1c2c(O)cc(O)cc2OC(c2ccc(O)c(O)c2)C1O (stereo not shown) [DHQR, 2-(3,4-dihydroxyphenyl)-3,5,7-trihydroxy-2,3-dihydro-4H-1-benzopyran-4-one, reference compound] | 100 to 1000 (≈ 0.329 to 3.29 mM) | very slightly soluble | 7.30 ± 0.24 | 0.511 ± 0.017 | 700 ± 20 (≈ 2.3 mM) | – | – | – | – |
| O=C1c2c(O)cc(O)cc2O[C@H](c2ccc(O)c(O)c2)[C@H]1O [DHQE] | – | soluble | 7.19 ± 0.37 | 0.504 ± 0.026 | 3090 ± 90 (≈ 10.2 mM) | at least 30 fold | statistically non-significant changes | 4.4 | – |
| O=C1c2c(O)cc(O)cc2O[C@H](c2ccc(O)c(O)c2)[C@H]1O [DHQA] | 1000 to 10000 (≈ 3.29 to 32.9 mM) | slightly soluble | 7.13 ± 0.19 | 0.499 ± 0.014 | – | – | statistically non-significant changes | 3.1 | 2140 ± 60 (≈ 7.03 mM) |
